From patent US7105313B2, “Cell-based drug screens for regulators of gene expression” (Amgen Inc., priority 1996, dated 2006)

Legend:
LDLR gene expression [1] = test: Northern hybridization of RNA from the LDLR-luciferase knock-in HepG2 cell line; assay type: cell-based, human; conditions: LDLR luciferase knock-in HepG2 cells
Experimental: The LDLR targeting construct was introduced into HepG2 cells by electroporation. Following recovery, the cells were maintained in media supplemented 1 mg/ml G418 and 2 uM gancyclovir for 3-4 weeks until individual colonies were observed. These […] isolated and propagated as individual cultures for further characterization. Individual clones were expanded into 24 well tissue culture plates, and genomic DNA was prepared and analyzed by restriction digestion and Southern hybridization. […] This clone was expanded for further characterization and use as a reporter cell line for LDLR gene expression. To determine whether the expression of luciferase gene is regulated as the same way as the endogenous LDLR gene, RNA was prepared and analyzed by Northern hybridization. […] The cholesterol-dependent regulation is the hallmark of LDLR gene expression. As indicated, the LDLR mRNA was regulated by in the presence or absence of cholesterol, albeit in this case the LDLR mRNA level was reduced to half due to the loss of one allele, which was replaced by the luciferase gene. The use of the luciferase knock-in cell line for LDLR gene expression was further validated by the luciferase activity, which was also regulated by cholesterol as predicted.

LDLR gene expression [2] = test: Luciferase activity of the LDLR-luciferase knock-in HepG2 cell line; assay type: cell-based, human; conditions: LDLR luciferase knock-in HepG2 cells
Experimental: To determine whether the expression of luciferase gene is regulated as the same way as the endogenous LDLR gene, RNA was prepared and analyzed by Northern hybridization. […] The cholesterol-dependent regulation is the hallmark of LDLR gene expression. As indicated, the LDLR mRNA was regulated by in the presence or absence of cholesterol, albeit in this case the LDLR mRNA level was reduced to half due to the loss of one allele, which was replaced by the luciferase gene. The use of the luciferase knock-in cell line for LDLR gene expression was further validated by the luciferase activity, which was also regulated by cholesterol as predicted. • Aliquot 100 ul cell suspension (10^4–10^5 primary or cultured, differentiated cells) into each well of 96-well plate under sterile conditions • Add compound or extract to 10 uM final concentration • Incubate 6–18 hrs at 37° C. • Remove incubation media • Add 100 ul lysis/luciferin buffer containing 1.0% non-ionic detergent (Triton x-100), 530 uM ATP, 270 uM coA and 470 uM luciferin (Promega). • Measure luciferase-derived luminescence on automated Torcon AML-34 and 7710 Microplate Luminometer (Cambridge Technologies, Inc.) luminometers.

Structure (SMILES) | LDLR mRNA (LDLR gene expression [1]; presence or absence of cholesterol) | luciferase activity (LDLR gene expression [2]) | luciferase mRNA (LDLR gene expression [1]; compared with lipid-depleted media, where mRNA was elevated)
CC(C)CCC[C@@H](C)[C@H]1CC[C@H]2[C@@H]3CC=C4C[C@@H](O)CC[C@]4(C)[C@H]3CC[C@]12C [cholesterol] | regulated | regulated | –
C[C@H](CCCC(C)(C)O)[C@H]1CC[C@H]2[C@@H]3CC=C4C[C@@H](O)CC[C@]4(C)[C@H]3CC[C@]12C [25-hydroxycholesterol] | – | – | suppressed
